Assay results taken from patent US11267811B2, “Small molecule inhibitors of galectin-3” (BRISTOL-MYERS SQUIBB COMPANY, priority 2017, dated 2022).
Where two headings read alike, the source gives them in different places.

Target: His-tagged recombinant human Gal-3 (hGal-3) (Homo sapiens (Human), UniProt P17931)
Assay: Gal-3 HTRF assay (His-tagged hGal-3 binding to B-ASF);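 also: compounds preincubated 30 min with hGal-3, then 1 h with B-ASF, detection via terbium anti-His antibody and streptavidin d2. Control with B-ASF counts as full signal, omitting B-ASF as background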
[1] = HTRF, hGal-3 15 nM, B-ASF 15 nM, read-out: hGal-3 IC50

Chain of His-tagged recombinant human Gal-3 (hGal-3) (P17931 whole entry): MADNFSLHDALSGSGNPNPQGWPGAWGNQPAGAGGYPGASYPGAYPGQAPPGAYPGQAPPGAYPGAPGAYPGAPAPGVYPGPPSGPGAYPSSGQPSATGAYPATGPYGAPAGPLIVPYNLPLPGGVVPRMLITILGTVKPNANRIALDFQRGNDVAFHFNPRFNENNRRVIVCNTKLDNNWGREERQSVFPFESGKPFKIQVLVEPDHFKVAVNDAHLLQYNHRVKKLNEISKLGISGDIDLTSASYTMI

Row | IC50 [1] | IC50 (read-out: hGal3 IC50) | Compound
1 | 130 nM |  | OC[C@H]1O[C@@H](c2ncnn2-c2cc(Cl)ccc2Cl)C[C@@H](n2cc(-c3cc(F)c(F)c(F)c3)nn2)[C@H]1O [Example 177]
2 | 250 nM |  | Cc1ccc(Cl)cc1-n1ncnc1[C@H]1C[C@@H](n2cc(-c3cc(F)c(F)c(F)c3)nn2)[C@@H](O)[C@@H](CO)O1 [Example 178]
3 | 250 nM |  | OC[C@H]1O[C@@H](c2ncnn2-c2cc(Cl)ccc2F)C[C@@H](n2cc(-c3cc(F)c(F)c(F)c3)nn2)[C@H]1O [Example 179]
4 | 210 nM |  | COc1ccc(Cl)cc1-n1ncnc1[C@H]1C[C@@H](n2cc(-c3cc(F)c(F)c(F)c3)nn2)[C@@H](O)[C@@H](CO)O1 [Example 180]
5 | 40 nM |  | OC[C@H]1O[C@@H](c2ncnn2-c2ccc3ncsc3c2)C[C@@H](n2cc(-c3cc(F)c(F)c(F)c3)nn2)[C@H]1O [Example 181]
6 | 120 nM |  | Cc1nc2cc(Cl)c(-n3ncnc3[C@H]3C[C@@H](n4cc(-c5cc(F)c(F)c(F)c5)nn4)[C@@H](O)[C@@H](CO)O3)cc2s1 [Example 182]
7 | 160 nM |  | COc1ccc(Cl)cc1-n1nc(C)nc1[C@H]1C[C@@H](n2cc(-c3cc(F)c(F)c(F)c3)nn2)[C@@H](O)[C@@H](CO)O1 [Example 183, (2R,3R,4R,6R)-6-(1-(5-chloro-2-methoxyphenyl)-3-methyl-1H-1,2,4-triazol-5-yl)-2-(hydroxymethyl)-4-(4-(3,4,5-trifluorophenyl)-1H-1,2,3-triazol-1-yl)tetrahydro-2H-pyran-3-ol]
8 | 90 nM |  | Cc1nc([C@H]2C[C@@H](n3cc(-c4cc(F)c(F)c(F)c4)nn3)[C@@H](O)[C@@H](CO)O2)n(-c2cc(Cl)ccc2C)n1 [Example 184]
9 | 170 nM |  | Cc1nc([C@H]2C[C@@H](n3cc(-c4cc(F)c(F)c(F)c4)nn3)[C@@H](O)[C@@H](CO)O2)n(-c2cc(Cl)ccc2F)n1 [Example 185]
10 | 50 nM |  | Cc1nc([C@H]2C[C@@H](n3cc(-c4cc(F)c(F)c(F)c4)nn3)[C@@H](O)[C@@H](CO)O2)n(-c2ccc3ncsc3c2)n1 [Example 186]
11 | 110 nM |  | Cc1nc([C@H]2C[C@@H](n3cc(-c4cc(F)c(F)c(F)c4)nn3)[C@@H](O)[C@@H](CO)O2)n(-c2ccc3nc(C)sc3c2)n1 [Example 187]
12 | 90 nM |  | CO[C@@H]1[C@@H](n2cc(-c3cc(F)c(F)c(F)c3)nn2)[C@@H](O)[C@@H](CO)O[C@H]1c1ncnn1-c1cccc(Cl)c1 [Example 189]
13 | 180 nM |  | CO[C@@H]1[C@@H](n2cc(-c3cc(F)c(F)c(F)c3)nn2)[C@@H](O)[C@@H](CO)O[C@H]1c1ncnn1-c1ccc(Cl)c(Cl)c1 [Example 190]
14 | 60 nM |  | CO[C@@H]1[C@@H](n2cc(-c3cc(F)c(F)c(F)c3)nn2)[C@@H](O)[C@@H](CO)O[C@H]1c1ncnn1-c1ccc2nc(C)sc2c1 [Example 191]
15 | 40 nM |  | CO[C@@H]1[C@@H](n2cc(-c3cc(F)c(F)c(F)c3)nn2)[C@@H](O)[C@@H](CO)O[C@H]1c1ncnn1-c1ccc2ncsc2c1 [Example 192]
16 | 180 nM |  | Cc1nc2ccc(-n3ncnc3[C@@H]3O[C@H](CO)[C@H](O)[C@H](n4cc(C(=O)NC5CC5)nn4)[C@H]3O)cc2s1 [Example 193, N-cyclopropyl-1-((2R,3R,4R,5R,6S)-3,5-dihydroxy-2-(hydroxymethyl)-6-(1-(2-methylbenzo[d]thiazol-6-yl)-1H-1,2,4-triazol-5-yl)tetrahydro-2H-pyran-4-yl)-1H-1,2,3-triazole-4-carboxamide]
17 | 4090 nM |  | Cc1nc2ccc(-n3ncnc3[C@@H]3O[C@H](CO)[C@H](O)[C@H](n4cc(C(N)=O)nn4)[C@H]3O)cc2s1 [Example 194]
18 | 1160 nM |  | CNC(=O)c1cn([C@H]2[C@@H](O)[C@@H](CO)O[C@@H](c3ncnn3-c3ccc4nc(C)sc4c3)[C@@H]2O)nn1 [Example 195]
19 | 5650 nM |  | Cc1nc2ccc(-n3ncnc3[C@@H]3O[C@H](CO)[C@H](O)[C@H](n4cc(C(=O)N(C)C)nn4)[C@H]3O)cc2s1 [Example 196]
20 | 1320 nM |  | Cc1nc2ccc(-n3ncnc3[C@@H]3O[C@H](CO)[C@H](O)[C@H](n4cc(C(=O)NC5CCCC5)nn4)[C@H]3O)cc2s1 [Example 197]
21 | 1020 nM |  | Cc1nc2ccc(-n3ncnc3[C@@H]3O[C@H](CO)[C@H](O)[C@H](n4cc(C(=O)NC5CCCCC5)nn4)[C@H]3O)cc2s1 [Example 198]
22 | 360 nM |  | Cc1nc2ccc(-n3ncnc3[C@@H]3O[C@H](CO)[C@H](O)[C@H](n4cc(C(=O)NC5CCC5)nn4)[C@H]3O)cc2s1 [Example 199]
23 | 860 nM |  | Cc1nc2ccc(-n3ncnc3[C@@H]3O[C@H](CO)[C@H](O)[C@H](n4cc(C(=O)NCc5cccc(F)c5)nn4)[C@H]3O)cc2s1 [Example 200]
24 | 350 nM |  | Cc1nc2ccc(-n3ncnc3[C@@H]3O[C@H](CO)[C@H](O)[C@H](n4cc(-c5ccc(C6CC6)c(F)c5)nn4)[C@H]3O)cc2s1 [Example 201, (2R,3R,4R,5R,6S)-4-(4-(4-cyclopropyl-3-fluorophenyl)-1H-1,2,3-triazol-1-yl)-2-(hydroxymethyl)-6-(1-(2-methylbenzo[d]thiazol-6-yl)-1H-1,2,4-triazol-5-yl)tetrahydro-2H-pyran-3,5-diol]
25 |  | 440 nM | Cc1nc2ccc(-n3ncnc3[C@@H]3O[C@H](CO)[C@H](O)[C@H](n4cc(-c5ccc(N)c(F)c5)nn4)[C@H]3O)cc2s1 [Example 202]

Row | IC50 [1] | IC50 (read-out: hGal3 IC50) | Compound
26 |  | 2120 nM | Cc1nc2ccc(-n3ncnc3[C@@H]3O[C@H](CO)[C@H](O)[C@H](n4cc(-c5ccc(NS(C)(=O)=O)c(F)c5)nn4)[C@H]3O)cc2s1 [Example 203]
27 |  | 5000 nM | CC(=O)Nc1ccc(-c2cn([C@H]3[C@@H](O)[C@@H](CO)O[C@@H](c4ncnn4-c4ccc5nc(C)sc5c4)[C@@H]3O)nn2)cc1F [Example 204]
28 |  | 1110 nM | COC(=O)Nc1ccc(-c2cn([C@H]3[C@@H](O)[C@@H](CO)O[C@@H](c4ncnn4-c4ccc5nc(C)sc5c4)[C@@H]3O)nn2)cc1F [Example 205]
29 |  | 1540 nM | Cc1nc2ccc(-n3ncnc3[C@@H]3O[C@H](CO)[C@H](O)[C@H](n4cc(-c5ccc(N(C)C)c(F)c5)nn4)[C@H]3O)cc2s1 [Example 206]
30 |  | 740 nM | CNc1ccc(-c2cn([C@H]3[C@@H](O)[C@@H](CO)O[C@@H](c4ncnn4-c4ccc5nc(C)sc5c4)[C@@H]3O)nn2)cc1F [Example 207]
31 |  | 3820 nM | Cc1nc2ccc(-n3ncnc3[C@@H]3O[C@H](CO)[C@H](O)[C@H](n4cc(-c5ccc(N(C)S(C)(=O)=O)c(F)c5)nn4)[C@H]3O)cc2s1 [Example 208]
32 |  | 80 nM | Cc1nc2ccc(-n3ncnc3[C@@H]3O[C@H](CO)[C@H](O)[C@H](n4cc(-c5ccc(C(F)(F)F)c(F)c5)nn4)[C@H]3O)cc2s1 [Example 209]
33 |  | 40 nM | Cc1nc2ccc(-n3ncnc3[C@@H]3O[C@H](CO)[C@H](O)[C@H](n4cc(-c5cc(F)c(Cl)c(F)c5)nn4)[C@H]3O)cc2s1 [Example 210]
34 |  | 60 nM | Cc1nc2ccc(-n3ncnc3[C@@H]3O[C@H](CO)[C@H](O)[C@H](n4cc(-c5ccc(Cl)c(Cl)c5)nn4)[C@H]3O)cc2s1 [Example 211]
35 |  | 60 nM | Cc1nc2ccc(-n3ncnc3[C@@H]3O[C@H](CO)[C@H](O)[C@H](n4cc(-c5ccc(C)c(F)c5)nn4)[C@H]3O)cc2s1 [Example 212]
36 |  | 120 nM | Cc1nc2ccc(-n3ncnc3[C@@H]3O[C@H](CO)[C@H](O)[C@H](n4cc(-c5cccc(F)c5)nn4)[C@H]3O)cc2s1 [Example 213]
37 |  | 600 nM | Cc1nc2ccc(-n3ncnc3[C@@H]3O[C@H](CO)[C@H](O)[C@H](n4cc(-c5ccccc5)nn4)[C@H]3O)cc2s1 [Example 214]
38 |  | 140 nM | Cc1nc2ccc(-n3ncnc3[C@@H]3O[C@H](CO)[C@H](O)[C@H](n4cc(-c5cc(F)cc(F)c5)nn4)[C@H]3O)cc2s1 [Example 215]
39 |  | 50 nM | Cc1nc2ccc(-n3ncnc3[C@@H]3O[C@H](CO)[C@H](O)[C@H](n4cc(-c5ccc(Br)c(F)c5)nn4)[C@H]3O)cc2s1 [Example 216]
40 |  | 70 nM | Cc1nc2ccc(-n3ncnc3[C@@H]3O[C@H](CO)[C@H](O)[C@H](n4cc(-c5ccc(Cl)c(F)c5)nn4)[C@H]3O)cc2s1 [Example 217]
41 |  | 20 nM | Cc1nc2ccc(-n3ncnc3[C@@H]3O[C@H](CO)[C@H](O)[C@H](n4cc(-c5cc(N)c(F)c(F)c5)nn4)[C@H]3O)cc2s1 [Example 218]
42 |  | 70 nM | CC(=O)Nc1cc(-c2cn([C@H]3[C@@H](O)[C@@H](CO)O[C@@H](c4ncnn4-c4ccc5nc(C)sc5c4)[C@@H]3O)nn2)cc(F)c1F [Example 219]
43 |  | 70 nM | CCOC(=O)Nc1cc(-c2cn([C@H]3[C@@H](O)[C@@H](CO)O[C@@H](c4ncnn4-c4ccc5nc(C)sc5c4)[C@@H]3O)nn2)cc(F)c1F [Example 220]
44 | 50 nM |  | Cc1nc2ccc(-n3ncnc3[C@@H]3O[C@H](CO)[C@H](O)[C@H](n4cc(-c5cc(F)c(Cl)c(Cl)c5)nn4)[C@H]3O)cc2s1 [Example 221, (2R,3R,4R,5R,6S)-4-(4-(3,4-dichloro-5-fluorophenyl)-1H-1,2,3-triazol-1-yl)-2-(hydroxymethyl)-6-(1-(2-methylbenzo[d]thiazol-6-yl)-1H-1,2,4-triazol-5-yl)tetrahydro-2H-pyran-3,5-diol]
45 | 240 nM |  | Cc1nc2ccc(-n3ncnc3[C@@H]3O[C@H](CO)[C@H](O)[C@H](n4cc(-c5cc(F)c(Cl)cc5F)nn4)[C@H]3O)cc2s1 [Example 222]
46 | 200 nM |  | COc1ccc(-c2cn([C@H]3[C@@H](O)[C@@H](CO)O[C@@H](c4ncnn4-c4ccc5nc(C)sc5c4)[C@@H]3O)nn2)cc1F [Example 223]
47 | 330 nM |  | Cc1nc2ccc(-n3ncnc3[C@@H]3O[C@H](CO)[C@H](O)[C@H](n4cc(-c5ccc(F)cc5)nn4)[C@H]3O)cc2s1 [Example 224, (2R,3R,4R,5R,6S)-4-(4-(4-fluorophenyl)-1H-1,2,3-triazol-1-yl)-2-(hydroxymethyl)-6-(1-(2-methylbenzo[d]thiazol-6-yl)-1H-1,2,4-triazol-5-yl)tetrahydro-2H-pyran-3,5-diol]
48 |  | 210 nM | Cc1nc2ccc(-n3ncnc3[C@@H]3O[C@H](CO)[C@H](O)[C@H](n4cc(-c5ccc(Br)cc5)nn4)[C@H]3O)cc2s1 [Example 225]
49 |  | 70 nM | Cc1nc2ccc(-n3ncnc3[C@@H]3O[C@H](CO)[C@H](O)[C@H](n4cc(-c5cc(F)c(Br)c(F)c5)nn4)[C@H]3O)cc2s1 [Example 226]
